The values that follow come from US5929075A, “Apolipoprotein-B synthesis inhibitors” (Janssen Pharmaceutica, N.V., priority 1994, dated 1999).

SMILES strings stand for the structures.

This experiment relates to apolipoprotein B. Put plainly: Apolipoprotein B (apo B) inhibition test in cultured human liver cells (Hepg2-cells). In kind it is cell-based. The conditions noted are these: concentration of the drug needed to reduce apoB secretion to 50% of the control, overnight at 37° C. On the procedure: Cultured human liver cells (Hepg2-cells), which synthesize and secrete low-density lipoproteins, were incubated overnight at 37° C. in a liquid medium containing radioactively labelled leucine. Thus radioactively labelled leucine was incorporated into the apolipoprotein B. The liquid medium was decanted and the apolipoprotein B was isolated by means of a double immunoprecipitation, i.e. first an apolipoprotein B-specific antibody (antibody1) was added to the liquid medium and subsequently a second antibody (antibody2) was added which binds specifically to the apoB-antibody1 -complex. The thus formed apoB-antibody1 -antibody2 complex precipitated and was isolated by centrifuge. Quantification of the amount of apolipoprotein B synthesized during the night resulted from measuring the radioactivity of the isolated complex. To measure the inhibiting activity of the test compound, that test compound was added to the liquid medium at different concentrations and the concentration of apolipoprotein B synthesized in the presence of a test compound (concentration apoB(after)) was compared to the concentration of apolipoprotein B which was synthesized in the absence of the test compound (concentration apoB(control)). For each experiment the inhibition of apolipoprotein-B formation was expressed as
% inhibition=100×(1-concentration of apoB(after)/concentration
When more experiments were carried out for the same concentration, the median value of the inhibition calculated for these experiments was calculated. IC50 -values (concentration of the drug needed to reduce apoB secretion to 50% of the control) were also computed.
Regarding `CCC(C)n1ncn(-c2ccc(N3CCN(c4ccc(OC[C@@H]5CO[C@@](CSc6ncn(C(C)C)n6)(c6ccc(Cl)cc6)O5)cc4)CC3)cc2)c1=O` (relative stereo) [Compound 112, (±)-cis-4-[4-[4-[4-[[2-(4-chlorophenyl)-2-[[[1-(1-methylethyl)-1H-1,2,4-triazol-3-yl]thio]methyl]-1,3-dioxolan-4-yl]methoxy]phenyl]-1-piperazinyl]phenyl]-2,4-dihydro-2-(1-methylpropyl)-3H-1,2,4-triazol-3-one], the midpoint of inhibition, the IC50, lay at 980 nM.

Compound `CCC(CC)n1ncn(-c2ccc(N3CCN(c4ccc(OC[C@@H]5CO[C@@](CSc6nncn6C)(c6ccc(F)cc6)O5)cc4)CC3)cc2)c1=O` (relative stereo) [Compound 43] registered an IC50 of 110 nM.

Compound `Cn1ncnc1SC[C@]1(c2ccc(F)cc2)OC[C@H](COc2ccc(N3CCN(c4ccc(-n5ncn(C6CCCC6)c5=O)cc4)CC3)cc2)O1` (relative stereo) [Compound 74] came in with an IC50 of 140 nM.

On to `CCCCCn1ncn(-c2ccc(N3CCN(c4ccc(OC[C@@H]5CO[C@@](CSc6nncn6C)(c6ccc(Cl)cc6)O5)cc4)CC3)cc2)c1=O` (relative stereo) [Compound 32], for which the IC50 came out at 180 nM.

For the compound `CCC(CC)n1ccn(-c2ccc(N3CCN(c4ccc(OC[C@H]5CO[C@](CSc6nncn6C)(c6ccc(F)cc6)O5)cc4)CC3)cc2)c1=O` (relative stereo) [Compound 130], the IC50 was 140 nM.

In turn, `Cn1ncnc1SC[C@]1(c2ccc(F)cc2F)OC[C@H](COc2ccc(N3CCN(c4ccc(-n5ncn(C6CCCC6)c5=O)cc4)CC3)cc2)O1` (relative stereo) [Compound 72] yielded an IC50 of 190 nM.

`CCC(C)n1ncn(-c2ccc(N3CCN(c4ccc(OC[C@H]5CO[C@](CSc6nccs6)(c6ccc(Cl)cc6)O5)cc4)CC3)cc2)c1=O` (relative stereo) [Compound 108] yielded an IC50 of 26 nM.

In turn, `Cn1cnnc1SC[C@]1(c2ccc(F)cc2)OC[C@H](COc2ccc(N3CCN(c4ccc(-n5ccn(C6CCCC6)c5=O)cc4)CC3)cc2)O1` (relative stereo) [Compound 128] gave an IC50 of 180 nM.

`CCCn1nc(CC)nc1SC[C@]1(c2ccc(Cl)cc2)OC[C@H](COc2ccc(N3CCN(c4ccc(-n5cnn(C(C)CC)c5=O)cc4)CC3)cc2)O1` (relative stereo) [Compound 78] returned an IC50 of 53 nM.

With `CCC(C)n1ncn(-c2ccc(N3CCN(c4ccc(OC[C@H]5CO[C@](CSc6ncccn6)(c6ccc(Cl)cc6)O5)cc4)CC3)cc2)c1=O` (relative stereo) [Compound 101], the midpoint of inhibition, the IC50, lay at 160 nM.

As to `Cn1cnnc1SC[C@@]1(c2ccc(F)cc2F)OC[C@@H](COc2ccc(N3CCN(c4ccc(-n5cnn(C6CCCC6)c5=O)cc4)CC3)cc2)O1` (relative stereo) [Compound 37], the IC50 amounted to 230 nM.

Consider `CC(C)n1cnn(-c2ccc(N3CCN(c4ccc(OC[C@@H]5CO[C@@](CSc6nncn6C)(c6ccc(Cl)cc6)O5)cc4)CC3)cc2)c1=O` (relative stereo) [Compound 1], for which inhibition was half-maximal at 92 nM (IC50).

Compound `CCC(C)n1ncn(-c2ccc(N3CCN(c4ccc(OC[C@H]5CO[C@](CSc6nnnn6C)(c6ccc(Cl)cc6)O5)cc4)CC3)cc2)c1=O` (relative stereo) [Compound 88] yielded an IC50 of 450 nM.

As to `Cn1cnnc1SC[C@@]1(c2ccc(Cl)cc2)OC[C@@H](COc2ccc(N3CCN(c4ccc(-n5cnn(C6CCCC6)c5=O)cc4)CC3)cc2)O1` (relative stereo) [Compound 24], the IC50 turned out to be 58 nM.

The compound `CCC(C)n1ncn(-c2ccc(N3CCN(c4ccc(OC[C@H]5CO[C@](CSc6nc(C)nn6C)(c6ccc(Cl)cc6)O5)cc4)CC3)cc2)c1=O` (relative stereo) [Compound 81] showed an IC50 of 49 nM.

Take `CCC(CC)n1ncn(-c2ccc(N3CCN(c4ccc(OC[C@H]5CO[C@](CSc6ncnn6C)(c6ccc(F)cc6F)O5)cc4)CC3)cc2)c1=O` (relative stereo) [Compound 65]: the midpoint of inhibition, the IC50, lay at 290 nM.

`CCC(C)n1ncn(-c2ccc(N3CCN(c4ccc(OC[C@H]5CO[C@](CSc6ncnn6CC)(c6ccc(Cl)cc6)O5)cc4)CC3)cc2)c1=O` (relative stereo) [Compound 77]: the IC50 came out at 71 nM.

In the case of `CCC(CC)n1ncn(-c2ccc(N3CCN(c4ccc(OC[C@@H]5CO[C@@](CSc6nncn6C)(c6ccc(Cl)cc6)O5)cc4)CC3)cc2)c1=O` (relative stereo) [Compound 44], the IC50 came out at 51 nM.

Compound `CC(C)Cn1cnn(-c2ccc(N3CCN(c4ccc(OC[C@H]5CO[C@](CSc6nccs6)(c6ccc(Cl)cc6)O5)cc4)CC3)cc2)c1=O` (relative stereo) [Compound 111] came in with an IC50 of 62 nM.

`CCC(C)n1ccn(-c2ccc(N3CCN(c4ccc(OC[C@H]5CO[C@](CSc6nncn6C)(c6ccc(Cl)cc6)O5)cc4)CC3)cc2)c1=O` (relative stereo) [Compound 93] displayed an IC50 of 27 nM.

On to `CCC(C)n1cnn(-c2ccc(N3CCN(c4ccc(OC[C@H]5CO[C@](CSc6nccs6)(c6ccc(Cl)cc6)O5)cc4)CC3)cc2)c1=O` (relative stereo) [Compound 110], for which the half-inhibitory concentration (IC50) came to 27 nM.

With `CCC(CC)n1cnn(-c2ccc(N3CCN(c4ccc(OC[C@@H]5CO[C@@](CSc6nncn6C)(c6ccc(Cl)cc6)O5)cc4)CC3)cc2)c1=O` (relative stereo) [Compound 7], the IC50 was determined as 79 nM.

`Cn1cnnc1SC[C@@]1(c2ccc(F)cc2)OC[C@@H](COc2ccc(N3CCN(c4ccc(-n5cnn(C6CCCC6)c5=O)cc4)CC3)cc2)O1` (relative stereo) [Compound 35] displayed an IC50 of 77 nM.

For the compound `CCC(C)n1ncn(-c2ccc(N3CCN(c4ccc(OC[C@@H]5CO[C@@](CSc6ncnn6C(C)C)(c6ccc(Cl)cc6)O5)cc4)CC3)cc2)c1=O` (relative stereo) [Compound 82], the IC50 worked out at 31 nM.

`Cn1cnnc1SC[C@]1(c2ccc(Cl)cc2)OC[C@H](COc2ccc(N3CCN(c4ccc(-n5ccn(C6CCCC6)c5=O)cc4)CC3)cc2)O1` (relative stereo) [Compound 123] returned an IC50 of 74 nM.

Take `CCC(C)n1cnn(-c2ccc(N3CCN(c4ccc(OC[C@@H]5CO[C@@](CSc6nncn6C)(c6ccc(Cl)cc6)O5)cc4)CC3)cc2)c1=O` (relative stereo) [Compound 2]: the concentration for half-maximal inhibition (IC50) came to 47 nM.

`CCC(C)n1ncn(-c2ccc(N3CCN(c4ccc(OC[C@H]5CO[C@](CSc6nc(C)cc(C)n6)(c6ccc(Cl)cc6)O5)cc4)CC3)cc2)c1=O` (relative stereo) [Compound 102] yielded an IC50 of 370 nM.

`CC(C)Cn1cnn(-c2ccc(N3CCN(c4ccc(OC[C@H]5CO[C@](CSc6ncn[nH]6)(c6ccc(Cl)cc6)O5)cc4)CC3)cc2)c1=O` (relative stereo) [Compound 84] gave an IC50 of 28 nM.

As to `CCCn1ncnc1SC[C@]1(c2ccc(Cl)cc2)OC[C@H](COc2ccc(N3CCN(c4ccc(-n5cnn(C(C)CC)c5=O)cc4)CC3)cc2)O1` (relative stereo) [Compound 80], the IC50 stood at 72 nM.

In the case of `CCC(C)n1ncn(-c2ccc(N3CCN(c4ccc(OC[C@H]5CO[C@](CSc6nnnn6-c6ccccc6)(c6ccc(Cl)cc6)O5)cc4)CC3)cc2)c1=O` (relative stereo) [Compound 89], the IC50 stood at 510 nM.

As to `CCC(C)n1ncn(-c2ccc(N3CCN(c4ccc(OC[C@H]5CO[C@](CSc6nncn6CC)(c6ccc(Cl)cc6)O5)cc4)CC3)cc2)c1=O` (relative stereo) [Compound 53], the IC50 was found to be 84 nM.

As to `Cn1cnnc1SC[C@@]1(c2ccc(Cl)cc2)OC[C@@H](COc2ccc(N3CCN(c4ccc(-n5ncn(C6CCCC6)c5=O)cc4)CC3)cc2)O1` (relative stereo) [Compound 6], the IC50 was found to be 120 nM.

Consider `CCC(C)n1ncn(-c2ccc(N3CCN(c4ccc(OC[C@H]5CO[C@](CSc6nnc(C)n6C)(c6ccc(Cl)cc6)O5)cc4)CC3)cc2)c1=O` (relative stereo) [Compound 56], for which the half-inhibitory concentration (IC50) stood at 230 nM.

`CCC(C)n1ncn(-c2ccc(N3CCN(c4ccc(OC[C@H]5CO[C@](CSc6nncn6CC(C)C)(c6ccc(Cl)cc6)O5)cc4)CC3)cc2)c1=O` (relative stereo) [Compound 54] displayed an IC50 of 79 nM.

`CC(C)Cn1cnn(-c2ccc(N3CCN(c4ccc(OC[C@@H]5CO[C@@](CSc6nncn6C)(c6ccc(F)cc6)O5)cc4)CC3)cc2)c1=O` (relative stereo) [Compound 5] yielded an IC50 of 200 nM.

With `CCC(C)n1ncn(-c2ccc(N3CCN(c4ccc(OC[C@@H]5CO[C@@](CSc6nnc(C(F)(F)F)n6C)(c6ccc(Cl)cc6)O5)cc4)CC3)cc2)c1=O` (relative stereo) [Compound 50], the IC50 amounted to 260 nM.
